In ChEMBL document CHEMBL1158628, “Quinlobelane: a water-soluble lobelane analogue and inhibitor of VMAT2” (Bioorg Med Chem Lett, 2010):

Tests used:
[1] = target: T1, Synaptic vesicular amine transporter (Rattus norvegicus, UniProt Q01827); experiment: Displacement of [3H]DTBZ from VMAT2 in rat synaptic vesicle membranes after 30 mins by liquid scintillation counting; assay type: cell membranes, Membrane
[2] = target: T1, Synaptic vesicular amine transporter; experiment: Inhibition of VMAT2-mediated [3H]dopamine uptake in rat synaptic vesicle membranes; assay type: cell membranes, Membrane
[3] = Aqueous solubility in water; assay type: physicochemical

T1 sequence (Q01827 whole entry): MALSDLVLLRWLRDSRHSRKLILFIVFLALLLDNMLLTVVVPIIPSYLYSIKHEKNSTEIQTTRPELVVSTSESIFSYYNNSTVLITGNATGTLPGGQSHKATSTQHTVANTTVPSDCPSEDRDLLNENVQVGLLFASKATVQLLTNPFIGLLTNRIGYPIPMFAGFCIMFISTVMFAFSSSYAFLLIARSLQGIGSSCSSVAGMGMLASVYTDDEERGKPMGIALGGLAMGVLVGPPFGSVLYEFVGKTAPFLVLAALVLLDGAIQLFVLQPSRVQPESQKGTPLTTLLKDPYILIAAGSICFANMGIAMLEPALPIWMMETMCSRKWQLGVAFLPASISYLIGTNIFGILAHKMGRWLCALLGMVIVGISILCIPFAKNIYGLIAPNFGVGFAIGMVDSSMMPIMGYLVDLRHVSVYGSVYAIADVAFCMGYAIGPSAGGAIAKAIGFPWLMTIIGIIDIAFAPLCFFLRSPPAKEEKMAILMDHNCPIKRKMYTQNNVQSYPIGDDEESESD

SMILES	Ki [1] [µM]	Ki [2] [µM]	solubility [3] [µg/mL]
CN1[C@@H](CCc2ccc3ccccc3n2)CCC[C@H]1CCc1ccc2ccccc2n1	0.96	0.067	
CN1[C@@H](CCc2c[nH]c3ccccc23)CCC[C@H]1CCc1c[nH]c2ccccc12	26	2.13	
CN1[C@@H](CCc2ccncc2)CCC[C@H]1CCc1ccncc1	5.87	5.23	
CN1[C@@H](CCc2ccccc2)CCC[C@H]1CCc1ccccc1.O=S(=O)(O)O			300
CN1[C@@H](CCc2cccnc2)CCC[C@H]1CCc1cccnc1	33.3	3.72	
CN1[C@@H](CCc2ccnc3ccccc23)CCC[C@H]1CCc1ccnc2ccccc12.Cl [QUINLOBELANE]	2.64	0.051	≥ 20000
